Consider three compounds from patent US7655392B2, “Quenching methods for red blood cell inactivation process” (priority 2004, dated 2010).

Series [1] is described as follows: pH of quencher stock and of RBC mixture. The format is physicochemical. The settings on record: for pH of stock quencher: room temperature. How it is done: The effect of various quenching conditions on the pH of a red blood cell composition was determined for various treatment conditions. The quencher solutions were prepared at a concentration of 600 mM in 8% dextrose monohydrate. […] Glutathione was assessed at 2 mM (acidic) or 20 mM (2 eq. of base). […] The pH of the quencher solution, either unmodified or neutralized, was measured using a standard Epoxy Calomel electrode (Beckman Instruments) at room temperature. […] The samples were mixed and the pH at room temperature was measured using the same electrode as described above.
In these, the appropriate amount of 600 mM stock was added, mixed with an appropriate volume of 8% dextrose to provide the same volume addition to each RBC sample where in one study, with varied glutathione concentrations, the pH was measured after adding glutathione and after adding PIC-1. […] Similar samples were also assessed for the inactivation of S. epidermidis. […] For gel card analysis, after incubation, the RBC were washed in BBS and were diluted in BBS to a final hematocrit of 4%. A 25 μL aliquot of each was mixed with 15 μL of rabbit polyclonal anti-acridine sera diluted either 1:4 or 1:100 in BBS and the mixture was incubated at 37° C. for 30 minutes. The cells were subsequently washed with 1.5 mL BBS. After washing was complete, the cells were mixed with goat anti-rabbit Fab′2 fragment anti H+L chains (1:4 dilution in PBS) and incubated at 37° C. for 30 minutes.

For series [2], the system named is red blood cells. Type of series: cell-based. The settings on record: 20 mM Cys+2 eq NaOH only, no PIC-1. On the procedure:
In another assay, the rabbit polyclonal sera may be reacted with treated red blood cells. After washing off unbound antibody, a FITC labeled goat anti-rabbit Fab′2 fragment (anti H+L chains, Caltag) is added. The binding of FITC label to the red blood cells correlates with the amount of acridine bound to the red blood cell surface, and is assessed by FACScan™ analysis (Becton, Dickinson and Co., NJ). The relative modification of the red blood cells is determined from the FACScan™ mean fluorescence value.
A 20 mL sample of leukoreduced whole blood (Blood Source, Sacramento, Calif.) was centrifuged at 4,100×g for 5 minutes at room temperature in each of four 50 mL centrifuge tubes. The supernatant was removed from each tube to provide red cell concentrate (RCC). […] For each washed RCC, cells were resuspended in 5 mL of the solution used for washing. This is now referred to as the RBC test sample. […] These samples were incubated for 20 hours at room temperature. After incubation, the RBC were washed in BBS (Blood Bank Saline, 0.9% saline, unbuffered, Fisher Scientific) and were diluted to a final hematocrit of 4%. A 25 μL aliquot of each was mixed with 15 μL of rabbit polyclonal anti-acridine sera diluted 1:100 in BBS and the mixture was incubated at 37° C. for 30 minutes. The cells were subsequently washed with 1.5 mL BBS. After washing was complete, the cells were mixed with 50 μL of FITC labeled goat anti-rabbit Fab′2 fragment (1:64 dilution in BBS) and incubated at 37° C. for 30 minutes. […] Note that the quenching improves as glutathione is neutralized with increasing amounts of sodium hydroxide.
The FACScan analysis of the binding of rabbit anti-acridine sera to treated red cells was used to assess a variety of quenching conditions. […] The tables represent data from two different experiments, each with samples treated under standard conditions or with 20 mM neutralized glutathione. […] The data within an experiment provides the relative efficacy of the various treatments. Because the assay may depend on the lot of red blood cells used, the absolute values of mean fluorescence may vary from one study to the next, such that relative values should only be compared within a given experiment. […] Neutralized glutathione at 20 mM results in close to background levels.
An untreated control sample as well as a standard sample (co-addition of 2 mM acidic glutathione with 0.2 mM PIC-1) were also assessed.
Full units of red cell concentrates (Interstate Blood Bank, Inc., Memphis, Tenn.) were leukoreduced. A volume of 200 mL of this RCC (80% hematocrit) was mixed with 94 mL of Erythrosol or 100 mL of Adsol (Baxter Healthcare Corp., Deerfield, Ill.) as control (unit 1). A volume of 20 mL 8% dextrose was used to dissolve PIC-1 (mg) and acid glutathione (mg) and added to one unit to provide 0.2 mM PIC-1 and 2 mM glutathione (unit 2). […] For the glutathione, 1.2 mL of 10 N NaOH was added (2 equivalents). The PIC-1 was mixed with the unit, followed 1 minute later (unit 3) or 5 minutes later (unit 4) by glutathione. For unit 5, neutralized glutathione was mixed first, followed 10 minutes later by the PIC-1. […] All units were mixed by grasping the ends of the blood bag and mixing in a FIG. 8 motion 30 times. These were then incubated at room temperature for 20 hours total. A compound adsorption device (CAD), comprising a polymeric resin contained within a mesh pouch, was used for all but the control sample. This device is intended to remove residual PIC-1, PIC-1 breakdown products, and glutathione from the samples. Samples were incubated for 8 hours, then transferred to a second blood bag containing the CAD and incubated for an additional 12 hours. Following the room temperature incubation, samples were transferred to a refrigerator (4° C.) and stored up to 43 days.

For series [3], the system named is Serratia marcescens. The format is cell-based. The settings on record: Table 5B: 20 mM Cys+2 eq base only, no PIC-1.
In series [4] the test system is Staphylococcus epidermidis. The series can be described thus: Inactivation of Staphylococcus epidermidis in RBC (colony count). Conditions: Table 5C: 20 mM cysteine+1 eq base only, no PIC-1.
Experimental: Whole blood (Blood Source, Sacramento, Calif.) was used to prepare a red blood cell (RBC) composition by centrifuging to provide packed RBC (34 mL of approximately 90% hematocrit), then adding 17 mL Erythrosol to a hematocrit of approximately 60%. Erythrosol is a red blood cell additive (Baxter Healthcare Corp., Deerfield, Ill.) that may be prepared by combining sodium citrate dihydrate (7.82 g); sodium acid phosphate dihydrate (0.73 g); sodium phosphate dihydrate (3.03 g); adenine (0.22 g); mannitol (7.74 g); and glucose (9 g) in 1 liter of distilled water. The bacterial preparation was then added ( 1/100th of the total volume) to the RBC/Erythrosol to provide contaminated RBC. The contaminated RBC was divided into several samples and treated according to Table 2, where PIC-1 is β-alanine, N-(acridin-9-yl), 2-[bis(2-chloroethyl)amino]ethyl ester. The PIC-1 and glutathione (Aldrich, St. Louis, Mo.) were dissolved in a solution of 8% dextrose monohydrate at about 15× the desired concentration in the final red blood cell composition when added together, or 30× when added separately. […] For separate addition using 20 mM neutralized glutathione, PIC-1 is prepared by dissolving 7.6 mg in 2.5 mL of 8% dextrose, glutathione is prepared by dissolving 460 mg in 1.9 mL of 8% dextrose and mixing with 0.6 mL of 5N NaOH, then adding 165 μL of each solution to 4.67 mL RBC in the appropriate order. Following treatment, the samples were incubated for 2 hours, and 100 μL of each was serially diluted and plated on LB plates. These were incubated overnight at 37° C. in order to assess bacterial growth. The bacterial titer was determined by counting colonies on the plates and based on the dilution of the plate, the titer was determined. For example, with 10-fold serial dilutions, 30 colonies counted on the 5th dilution of the original solution, where 0.1 mL are plated, would indicate an initial titer of (30×10^5)/0.1=3×10^7, or 7.47 log. […] Note that for most samples in Table 2A the PIC-1 and glutathione were formulated together. […] The study was repeated with sequential addition of the two components, as indicated in Table 2B (time delay of 0 indicates they were added in the same solution).
Additional studies were done using S. epidermidis, where the overnight culture was used without dilution. […] PIC-1 is at 0.2 mM in all samples.
For these samples, the NaOH stock was prepared at 10N and appropriate volumes of the various components were used following the procedures above. Standard conditions and/or 20 mM neutralized glutathione (GSH) were run for comparison.
The mark [5] stands for this setting: 600 mM in 8% dextrose + 1 eq. base.
The mark [6] stands for this setting: Table 10: RBC + 20 mM quencher + 1 eq. base + 0.2 mM PIC-1.
Where [7] appears, read: Table 10: RBC + 20 mM quencher + 2 eq. base + 0.2 mM PIC-1.

The structures appear in SMILES notation. Like-named read-outs stand apart in the source and are kept apart here.

`CC(=O)N[C@@H](CS)C(=O)O` [N-acetyl cys, N-acetyl cysteine]: in series [1] (setting [5]), the “pH of stock quencher” value is on record as 6. In series [1] (setting [6]), the “pH of final mixture” value is given as 6.7.
Regarding `N[C@@H](CS)C(=O)O` [cysteine], the “mean fluorescence” value was 1.9 in series [2] (Table 9A: control) and 1.99 in series [2] (Table 9B: control). Besides, the “Log S. marcescens reduction” value in series [3] stood at 0.3 Log. The “Log S. marcescens titer” value in series [3] is listed as 7.3 Log. Besides, the “Log S. epidermidis reduction” value in series [4] was determined as 0.1 Log. Further, the “Log S. epidermidis titer” value in series [4] was found to be 7.1 Log. Besides, the “pH of final mixture” value in series [1] (setting [6]) came out at 7.4; in series [1] (setting [7]), 7.8; in series [1] (Table 10: RBC + 20 mM quencher, no base + 0.2 mM PIC-1) it was 6.5.
Consider `CSCC[C@H](N)C(=O)O` [methionine, reference compound], for which the results for the “pH of stock quencher” value in series [1] (setting [5]) and in series [1] (600 mM in 8% dextrose + 2 eq. base) were 11.2 and 13.1, respectively. The “pH of final mixture” value in series [1] (setting [6]) worked out at 7.5; in series [1] (setting [7]) it was 8.
